“And” between values parts separate entries of the source, which are not always exact repeats. Equal values may be shown once.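 Assay format: 96-well plates, 48-hour exposure. GI50 is the concentration that inhibits growth by half. TGI: concentration producing complete growth inhibition.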
How the values were obtained:
Experiment in all cases: inhibition of tumour cell growth, NCI panel, 48 h
MDA-MB-231 breast = tested on: MDA-MB-231 breast
SK-MEL-28 melanoma = tested on: SK-MEL-28 melanoma
DU-145 prostate = tested on: DU-145 prostate
MCF7 breast = tested on: MCF7 breast
LXFL 529 NSCLC = tested on: LXFL 529 NSCLC
DMS 273 small cell lung = tested on: DMS 273 small cell lung
KM20L2 colon = tested on: KM20L2 colon
XF 498 CNS = tested on: XF 498 CNS
DLD-1 colon = tested on: DLD-1 colon

SMILES | GI50 (MDA-MB-231 breast) | TGI (MDA-MB-231 breast) | GI50 (SK-MEL-28 melanoma) | TGI (SK-MEL-28 melanoma) | GI50 (DU-145 prostate) | TGI (DU-145 prostate) | GI50 (MCF7 breast) | TGI (MCF7 breast) | TGI (LXFL 529 NSCLC) [µM] | TGI (DMS 273 small cell lung) [µM] | TGI (KM20L2 colon) [µM] | TGI (XF 498 CNS) [µM] | TGI (DLD-1 colon) [µM]
Nc1c(C(=O)Nc2ccccc2)sc2nc3c(cc12)CCCCCC3 | 0.892 µM | 43.1 µM | 1.1 µM | 21.8 µM | 0.445 µM | 12.3 µM | 0.288 µM | 11.8 µM |  |  |  |  | 
CCC1=C(C)/C(=C/c2[nH]c(C)c(C(=O)CCCCC(=O)OC)c2C)N=C1c1ccc[nH]1 | 4.6 µM | 46.4 µM | 7.25 µM | 25.8 µM | 12.2 µM | 24.6 µM | 12.1 µM | 46.4 µM |  |  |  |  | 
S=CN1CCCCC1 |  | > 100 µM |  | > 100 µM |  | > 100 µM |  | > 100 µM |  |  |  |  | 
COC(=O)c1c[nH]cc1CCc1c[nH]cc1C(=O)OC |  |  |  | > 100 µM |  |  |  |  | > 100 | > 100 | > 100 | > 100 | 
Cc1cc2c(c3c1c1ccccc1n3C)C(=O)C=CC2=O |  | 75 µM |  | 47.9 µM |  | > 100 µM |  | 25.8 µM | 16.7 | 55.9 |  | 37.9 | 20.4
CS(=O)(=O)c1ccc(Oc2cc(F)cc(C#N)c2)c2c1[C@H](O)[C@H](F)[C@@H]2F | > 100 µM | > 100 µM | > 100 µM | > 100 µM | > 100 µM | > 100 µM | > 100 µM | > 100 µM |  |  |  |  | 
Cn1c(C(N)=O)cc2c1-c1nc(Nc3ccccc3)ncc1CCC2 | 5.59 µM | > 100 µM | 8.74 µM | 61.1 µM | 6.18 µM | 62.7 µM | 4.41 µM | > 100 µM |  |  |  |  | 
O=[N+]([O-])c1cnc(Sc2ccncn2)c([N+](=O)[O-])c1 | 14.8 µM | 28.4 µM | 15.6 µM | 29.7 µM | 16.7 µM | 30.5 µM | 5.96 µM | 24.9 µM |  |  |  |  | 
Cc1ccc(C)c(NC(=O)C(=O)C2C(=O)C3=C(CC2(C)C)Nc2ccccc2S3)c1 (centres undefined) |  | > 100 µM |  | > 100 µM |  | > 100 µM |  | > 100 µM |  |  |  |  | 
COC(=O)/C=C/c1cc(O)c2c(c1)C(C(=O)OC)C(c1ccc(O)c(O)c1)O2 (centres undefined) | 0.192 µM and 0.308 µM | 18.2 µM and 47.1 µM |  | 60.8 µM and > 100 µM | 0.372 µM and 0.053 µM | > 100 µM | 0.0337 µM | 82.1 µM and > 100 µM |  |  |  |  | 
O=C(Nc1ccc(S(=O)(=O)Nc2nccs2)cc1)c1cccnc1Nc1cccc(Cl)c1 | 5.73 µM | 21.4 µM | 17.8 µM | 37.7 µM | 15.2 µM | 30.6 µM | 12.2 µM | 32.5 µM |  |  |  |  | 
O=C(/C=C/c1ccco1)c1ccc(Nc2nc(Nc3ccc(F)cc3)nc(Nc3ccc(Cl)cc3)n2)cc1 | 16.2 µM | 61.9 µM | > 40.2 µM | > 61.8 µM | 30.9 µM | > 74.7 µM | 1.84 µM | 34.1 µM |  |  |  |  | 
COc1cc2oc(=O)cc(C)c2cc1[N+](=O)[O-] |  | 71.6 µM |  | 64.6 µM |  | > 100 µM |  | > 100 µM |  |  |  |  | 
O=C(Nc1ccc(Cl)c([N+](=O)[O-])c1)Nc1nc2ccccc2s1 | 3.5 µM | 12.1 µM | 4.95 µM | 21.3 µM | 4.22 µM | 14.6 µM | 3.02 µM | 15.5 µM |  |  |  |  | 
CC(C)(C)[OH+][O-].[O-]c1ccc(Cl)cc1C=Nc1ccc(Cl)cc1[O-].[O]=[V] | 29.9 µM | > 100 µM | 19.2 µM | 53.8 µM | 16.5 µM | 54.2 µM | 11.4 µM | 30 µM |  |  |  |  | 
O=C1/C(=C/c2cccc([N+](=O)[O-])c2)COc2ccc(O)c(O)c21 | 1.47 µM | 2.98 µM | 1.56 µM | 2.98 µM | 1.9 µM | 4.39 µM | 0.665 µM | 2.96 µM |  |  |  |  | 
CCCCCCCCCCCCN1C(C)=CS/C1=C\C=C\c1scc(C)[n+]1CCCCCCCCCCCC |  |  | 2.74 µM | 17.3 µM | 2.38 µM | 10.5 µM |  |  |  |  |  |  | 
CN(C)/[N+]([O-])=N/Oc1cc(Nc2cccc(C(=O)O)c2)c([N+](=O)[O-])cc1[N+](=O)[O-] | > 100 µM | > 100 µM | > 100 µM | > 100 µM | > 100 µM | > 100 µM | 36.8 µM | > 100 µM |  |  |  |  | 
COc1cc(/C=C(/C)[N+](=O)[O-])ccc1O | 2.14 µM and 2.64 µM | 5.5 µM and 7.44 µM | 1.81 µM and 1.87 µM | 3.87 µM and 3.88 µM | 2.01 µM and 1.59 µM | 4.11 µM and 3.26 µM | 1.44 µM and 1.37 µM | 3.39 µM and 2.9 µM |  |  |  |  | 
Oc1c(CN2CCC(N3CCOCC3)CC2)cc(Cc2cc(CN3CCC(N4CCOCC4)CC3)c(O)c3ncccc23)c2cccnc12 | 0.27 µM | 5.03 µM | 1.4 µM | 22.9 µM | 0.612 µM | > 100 µM | 0.543 µM | > 100 µM |  |  |  |  | 
CN(C)CCNC(=O)c1ccc(Nc2nc3ccccc3c3occc23)cc1 | 1.54 µM | 4.14 µM | 16.5 µM | 44 µM | 6.94 µM | 20.7 µM | 49.3 µM | > 100 µM |  |  |  |  | 
C[Si](C)(C)C#CCO[Si](C)(C)C |  | > 92.6 µM |  | > 100 µM |  | > 100 µM |  | > 100 µM |  |  |  |  | 
O=C1C2C(C(=O)N1O)N(Cc1ccccc1)C(=O)N2Cc1ccccc1 (centres undefined) |  |  |  | > 100 µM |  |  |  |  | > 100 |  | > 100 | > 100 | > 100
CCCN1C(=O)C/C(=C\C(C)=O)Nc2ccccc21 |  |  |  | > 100 µM |  |  |  |  | > 100 | > 100 |  | > 100 | > 100
CCOC(=N)CC(=O)Nc1ccc(Cl)cc1 |  |  |  | > 100 µM |  |  |  |  | > 100 | > 100 | > 100 | > 100 | > 100
Oc1ccc2ccccc2c1C=NCCCN=Cc1c(O)ccc2ccccc12 | 11.6 µM | 30.2 µM | 15.8 µM | > 100 µM | 35.3 µM | > 100 µM | 17.1 µM | > 100 µM |  |  |  |  | 
CC(C)C[C@H](NC(=O)[C@H](Cc1ccccc1)n1ccc(N2CCCCC2)cc1=O)B(O)O | 1.2 µM | 12.2 µM | 0.521 µM | 29.7 µM | 0.706 µM | > 100 µM | 0.392 µM | > 100 µM |  |  |  |  | 

Reference: PubChem BioAssay (NCI)
